What all share (format): cell-based
For experiment [1], the system named is clinical MDR K. pneumoniae isolates. As to the kind of experiment: MIC, clinical multi-drug resistant K. pneumoniae isolates. The settings on record: for MIC: Klebsiella pneumoniae. The procedure: (§1) Minimum inhibitory concentration (MIC) values were determined according to the Clinical Laboratory Standards Institute guidelines. Frequency of resistance was determined by plating ~5 × 10^8 bacterial cells on agar-solidified media plates containing test compound at concentrations corresponding to four times the measured solid-media MIC of the strains. Colonies were counted after 24 h, restreaked onto media containing the same concentration of compound, and the MIC remeasured against the assayed compound. Genomic DNA from isolated clones was sequenced by paired-end sequencing on an Illumina MiSeq device. Complete experimental details available in SI Appendix. […]
(§2) Minimum inhibitory concentration (MIC) determination. Broth microdilution and agar dilution MIC assays were conducted according to CLSI guidelines (M07-2012). Appropriate inoculation suspension density was assessed using a Sensititre Nephelometer with a Sensititre 0.5 […]
(§3) McFarland Standard. […]
To determine the […]
genotype of MDR strains from the ENABLE strain collection, de novo assembled contigs were […]

Experiment [2] deals with clinical MDR E. coli isolates. As to the kind of experiment: MIC, clinical multi-drug resistant E. coli isolates. The following applies: for MIC: Escherichia coli. The procedure:
as §1, §2, §3
Whole-genome sequencing and data analysis. Genomic DNA of selected clones was prepared using an Epicentre MasterPure Complete DNA Purification Kit. Whole-genome sequencing libraries were prepared using an Illumina Nextera XT Library Preparation Kit. The libraries were sequenced using an Illumina MiSeq device with a V3 600-cycle reagent kit. Whole-genome sequencing data was analyzed using CLC Genomics Workbench Version 11. To determine the genotype of MDR strains from the ENABLE strain collection, de novo assembled contigs were […]

For a further experiment, the system named is E. coli ATCC 25922. The experiment is described as follows: MIC (CLSI broth microdilution), wild-type E. coli. The settings on record: ATCC 25922 (Table S4); for MIC: Escherichia coli, ATCC25922, read-out: MIC E. coli EN0001. The procedure: as §1
Minimum inhibitory concentration (MIC) determination. Broth microdilution and agar dilution
MIC assays were conducted according to CLSI guidelines (M07-2012). Appropriate inoculation
suspension density was assessed using a Sensititre Nephelometer with a Sensititre 0.5
as §3

Where [3] appears, read: read-out: MIC K. pneumoniae EN0140.
The mark [4] stands for this setting: read-out: MIC K. pneumoniae EN0142.
Where [5] appears, read: read-out: MIC K. pneumoniae EN0143.
The mark [6] stands for this setting: read-out: MIC K. pneumoniae EN0144.
Where [7] appears, read: read-out: MIC K. pneumoniae EN0145.
[8] abbreviates: read-out: MIC K. pneumoniae EN0233.
Where [9] appears, read: read-out: MIC K. pneumoniae EN0245.
Setting [10] is: read-out: MIC K. pneumoniae EN0504.

Values after ≈ are worked out from the molar mass of the structure shown. Like-named read-outs stand apart in the source and are kept apart here.

Turning to `CO/N=C(\C(=O)N[C@@H]1C(=O)N2C(C(=O)O)=C(COC(C)=O)CS[C@H]12)c1csc(N)n1` [Cefotaxime], the minimal inhibitory concentration (MIC) (in general, the lowest concentration that inhibits growth of the organism) is > 64 µg/mL in experiment [1] (setting [3]); > 64 µg/mL in experiment [1] (setting [4]); 16 µg/mL (≈ 35.1 µM) in experiment [1] (setting [5]); > 64 µg/mL in experiment [1] (setting [6]); > 64 µg/mL in experiment [1] (setting [7]); > 64 µg/mL in experiment [1] (setting [8]). The MIC was 64 µg/mL (≈ 141 µM) in experiment [1] (setting [9]); > 64 µg/mL in experiment [1] (setting [10]); 8 µg/mL (≈ 17.6 µM) in experiment [2] (read-out: MIC E. coli EN0134); 2 µg/mL (≈ 4.39 µM) in experiment [2] (read-out: MIC E. coli EN0135); 4 µg/mL (≈ 8.78 µM) in experiment [2] (read-out: MIC E. coli EN0136); > 64 µg/mL in experiment [2] (read-out: MIC E. coli EN0137). Moreover, the MIC was > 64 µg/mL in experiment [2] (read-out: MIC E. coli EN0138); > 64 µg/mL in experiment [2] (read-out: MIC E. coli EN0139); > 64 µg/mL in experiment [2] (read-out: MIC E. coli EN0303); > 64 µg/mL in experiment [2] (read-out: MIC E. coli EN0481); 0.5 µg/mL (≈ 1.1 µM) in the experiment on E. coli ATCC 25922.
Take `CNC(C)C1CCC(N)C(OC2C(N)CC(N)C(OC3OCC(C)(O)C(NC)C3O)C2O)O1` (centres unmarked) [Gentamicin]: the MIC in experiment [1] (setting [3]) was > 64 µg/mL; in experiment [1] (setting [4]), 64 µg/mL (≈ 134 µM); in experiment [1] (setting [5]), 0.5 µg/mL (≈ 1.05 µM); in experiment [1] (setting [6]) it was > 64 µg/mL; in experiment [1] (setting [7]) it was 2 µg/mL (≈ 4.19 µM); in experiment [1] (setting [8]), > 64 µg/mL. Moreover, the minimum inhibitory concentration (MIC) was 2 µg/mL (≈ 4.19 µM) in experiment [1] (setting [9]); 0.5 µg/mL (≈ 1.05 µM) in experiment [1] (setting [10]); 2 µg/mL (≈ 4.19 µM) in experiment [2] (read-out: MIC E. coli EN0134); > 64 µg/mL in experiment [2] (read-out: MIC E. coli EN0135); > 64 µg/mL in experiment [2] (read-out: MIC E. coli EN0136); > 64 µg/mL in experiment [2] (read-out: MIC E. coli EN0137). Moreover, the minimal inhibitory concentration (MIC) in experiment [2] (read-out: MIC E. coli EN0138) was 8 µg/mL (≈ 16.8 µM); in experiment [2] (read-out: MIC E. coli EN0139) it was 2 µg/mL (≈ 4.19 µM); in experiment [2] (read-out: MIC E. coli EN0303), 2 µg/mL (≈ 4.19 µM); in experiment [2] (read-out: MIC E. coli EN0481) it was > 64 µg/mL; in the experiment with E. coli ATCC 25922, 1 µg/mL (≈ 2.09 µM).
Regarding `C[C@@H](O)[C@H]1C(=O)N2C(C(=O)O)=C(S[C@@H]3CN[C@H](C(=O)N(C)C)C3)[C@H](C)[C@H]12` [Meropenem], the minimal inhibitory concentration (MIC) was 2 µg/mL (≈ 5.22 µM) in experiment [1] (setting [3]); 0.5 µg/mL (≈ 1.3 µM) in experiment [1] (setting [4]); ≤ 0.125 µg/mL in experiment [1] (setting [5]); 64 µg/mL (≈ 167 µM) in experiment [1] (setting [6]); 8 µg/mL (≈ 20.9 µM) in experiment [1] (setting [7]); 2 µg/mL (≈ 5.22 µM) in experiment [1] (setting [8]). The minimum inhibitory concentration (MIC) in experiment [1] (setting [9]) was 2 µg/mL (≈ 5.22 µM); in experiment [1] (setting [10]) it was 4 µg/mL (≈ 10.4 µM); in experiment [2] (read-out: MIC E. coli EN0134) it was ≤ 0.125 µg/mL; in experiment [2] (read-out: MIC E. coli EN0135) it was ≤ 0.125 µg/mL; in experiment [2] (read-out: MIC E. coli EN0136), ≤ 0.125 µg/mL; in experiment [2] (read-out: MIC E. coli EN0137) it was ≤ 0.125 µg/mL. Also, the MIC (in experiment [2] (read-out: MIC E. coli EN0138); in experiment [2] (read-out: MIC E. coli EN0139); in experiment [2] (read-out: MIC E. coli EN0303); in experiment [2] (read-out: MIC E. coli EN0481); in the experiment on E. coli ATCC 25922) was ≤ 0.125 µg/mL throughout.
On to Colistin, for which, in experiment [1] (MBL (blaVIM-26), MDR), the “MIC K. pneumoniae EN0144” value came to 2 µg/mL. Also, the “MIC K. pneumoniae EN0145” value in experiment [1] (MDR (blaCTX-M-15 ...)) came out at 2 µg/mL. Further, the “MIC K. pneumoniae EN0140” value in experiment [1] (MDR (blaDHA-1 ...), OmpK36 loss) worked out at 2 µg/mL. Besides, the “MIC K. pneumoniae EN0143” value in experiment [1] (MDR (blaOXA-2, blaSHV-12 ...)) worked out at 2 µg/mL. The “MIC K. pneumoniae EN0142” value in experiment [1] (carbapenemR (blaKPC-2), MDR) was 2 µg/mL. Also, the “MIC K. pneumoniae EN0233” value in experiment [1] (carbapenemR (blaOXA-48), MDR, OmpK36 loss) turned out to be 32 µg/mL. For the same molecule, the “MIC K. pneumoniae EN0245” value in experiment [1] (colistinR (mgrB::IS10), MDR) turned out to be 64 µg/mL. Moreover, in experiment [1] (colistinR, MDR), the “MIC K. pneumoniae EN0504” value came to 64 µg/mL. Also, in experiment [2] (MDR (aac(3)-IIa, blaTEM-1B, blaSHV-12 ...)), the “MIC E. coli EN0135” value turned out to be 2 µg/mL. Also, in experiment [2] (MDR (blaCMY-4, blaTEM-1B ...)), the “MIC E. coli EN0134” value was found to be 2 µg/mL. Further, the “MIC E. coli EN0138” value in experiment [2] (MDR (blaCTX-M-14b, blaTEM-1C ...)) worked out at 2 µg/mL. The “MIC E. coli EN0139” value in experiment [2] (MDR (blaOXA-1, blaCTX-M-15 ...)) came out at 2 µg/mL. Further, the “MIC E. coli EN0137” value in experiment [2] (MDR (blaOXA-1, blaTEM-1B, blaCTX-M-15 ...)) stood at 2 µg/mL. In addition, the “MIC E. coli EN0136” value in experiment [2] (MDR (blaOXA-2, blaTEM-1B, blaCTX-M-2 ...)) stood at 1 µg/mL. In addition, the “MIC E. coli EN0481” value in experiment [2] (colistinR (mcr-1), MDR (rmtB ...)) worked out at 8 µg/mL. Also, the “MIC E. coli EN0303” value in experiment [2] (colistinR (pmrB T156M), MDR) turned out to be 8 µg/mL. Further, the “MIC E. coli EN0001” value against E. coli ATCC 25922 turned out to be 2 µg/mL.

The values are drawn from publication PMC11009625, “Antibiotic class with potent in vivo activity targeting lipopolysaccharide synthesis in Gram-negative bacteria” (Proceedings of the National Academy of Sciences of the …, 2024).
